# From patent US11414424B2, “Cardiac sarcomere inhibitors” (Cytokinetics, Inc., priority 2018, dated 2022)
# System: bovine cardiac myofibrils
# Assay: Myofibril assay: PK/LDH-coupled steady-state ATPase activity of skinned bovine cardiac myofibrils
# Format: biochemical
# Conditions: Ca2+ activating to 75% of maximal rate
# Summary of the method: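 Steady-state ATPase of detergent-skinned bovine left-ventricular myofibrils (1 mg/mL), PK/LDH-coupled NADH read at 340 nm, in PIPES/MgCl2 buffer pH 6.8 with 50 μM ATP, 0.6 mM EGTA and CaCl2 set for 50% or 75% activation. Inhibition of activity measured.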
row,SMILES,CDMF75 IC15 [µM]
1,"O=C1C(C2CC(O)C2)N(Cc2ccc(C(F)(F)F)cc2)C(=O)CN1c1ncc(Cl)cc1F (stereo not shown) [Compound 740, 1-(5-chloro-3-fluoropyridin-2-yl)-3-(3-hydroxycyclobutyl)-4-(4-(trifluoromethyl)benzyl)piperazine-2,5-dione]",2.3
2,"O=C1C(C2COC2)N(Cc2ccc(C(F)(F)F)cc2)C(=O)CN1c1ccc(Cl)c(F)c1 (stereo not shown) [Compound 747, 1-(4-chloro-3-fluorophenyl)-3-(oxetan-3-yl)-4-(4-(trifluoromethyl)benzyl)-piperazine-2,5-dione]",3.7
3,"O=C1[C@H](C2CC2)N(Cc2ccc(C(F)(F)F)cc2)C(=O)CN1c1ncc(Cl)cc1F [Compound 750, (S)-1-(5-chloro-3-fluoropyridin-2-yl)-3-cyclopropyl-4-(4-(trifluoromethyl)benzyl)piperazine-2,5-dione]",1.0
4,"O=C1[C@H](C2CC2)N(Cc2ccc(F)cc2)C(=O)CN1c1ncc(Cl)cc1F [Compound 751, (S)-1-(5-chloro-3-fluoro-pyridin-2-yl)-3-cyclo-propyl-4-(4-fluorobenzyl)-piperazine-2,5-dione]",1.3
5,"Cc1ccc(CN2C(=O)CN(c3ncc(Cl)cc3F)C(=O)C23COC3)cc1 [Compound 757, 8-(5-chloro-3-fluoropyrldin-2-yl)-5-(4-methylbenzyl)-2-oxa-5,8-diazaspiro[3.5]-nonane-6,9-dione]",7.2
6,"COc1cnc(N2CC(=O)N(Cc3ccc(C)cc3)C(C3COC3)C2=O)c(F)c1 (stereo not shown) [Compound 758, 1-(3-fluoro-5-methoxy-pyridin-2-yl)-4-(4-methyl-benzyl)-3-(oxetan-3-yl)-piperazine-2,5-dione]",19.4
7,"COc1cnc(N2CC(=O)N(Cc3ccc(C)c(F)c3)C(C3COC3)C2=O)c(F)c1 (stereo not shown) [Compound 761, 4-(3-fluoro-4-methyl-benzyl)-1-(3-fluoro-5-methoxypyridin-2-yl)-3-(oxetan-3-yl)piperazine-2,5-dione]",16.3
8,"O=C1CN(c2ncc(Cl)cc2F)C(=O)C2(CC(O)C2)N1Cc1ccc(F)cc1 (stereo not shown) [Compound 764, 8-(5-chloro-3-fluoropyridin-2-yl)-5-(4-fluorobenzyl)-2-hydroxy-5,8-diazaspiro-[3.5]nonane-6,9-dione]",1.6
9,"O=C1CN(c2ncc(Cl)cc2F)C(=O)C2(COC2)N1Cc1ccc(C(F)F)cc1 [Compound 768, 8-(5-chloro-3-fluoropyridin-2-yl)-5-(4-(difluoromethyl)-benzyl)-2-oxa-5,8-diazaspiro[3.5]nonane-6,9-dione]",4.3
10,"COc1cnc(N2CC(=O)N(Cc3ccc(Cl)cc3)C(C3COC3)C2=O)c(F)c1 (stereo not shown) [Compound 769, 4-(4-chlorobenzyl)-1-(3-fluoro-5-methoxypyridin-2-yl)-3-(oxetan-3-yl)-piperazine-2,5-dione]",7.9
11,"COc1cnc(N2CC(=O)N(Cc3ccc(Cl)c(F)c3)C(C3COC3)C2=O)c(F)c1 (stereo not shown) [Compound 772, 4-(4-chloro-3-fluoro-benzyl)-1-(3-fluoro-5-methoxypyridin-2-yl)-3-(oxetan-3-yl)piperazine-2,5-dione]",7.7
12,"COc1cnc(N2CC(=O)N(Cc3ccc(F)c(Cl)c3)C(C3COC3)C2=O)c(F)c1 (stereo not shown) [Compound 775, 4-(3-chloro-4-fluoro-benzyl)-1-(3-fluoro-5-methoxypyridin-2-yl)-3-(oxetan-3-yl)piperazine-2,5-dione]",8.0
13,"COC(=O)C12CC(C3C(=O)N(c4ncc(Cl)cc4F)CC(=O)N3Cc3ccc(C(F)(F)F)cc3)(C1)C2 (stereo not shown) [Compound 778, methyl 3-(4-(5-chloro-3-fluoropyridin-2-yl)-3,6-dioxo-1-(4-(trifluoro-methyl)benzyl)piperazin-2-yl)bicydo[1.1.1]pentane-1-carboxylate]",2.4
14,"COC(=O)C12CC(C3C(=O)N(c4ncc(Cl)cc4F)CC(=O)N3Cc3ccc(C(F)F)cc3)(C1)C2 (stereo not shown) [Compound 779, methyl 3-(4-(5-chloro-3-fluoropyridin-2-yl)-1-(4-(difluoromethyl)benzyl)-3,6-dioxopiperazin-2-yl)bicyclo[1.1.1]pentane-1-carboxylate]",2.9
15,"COC(=O)C12CC(C3C(=O)N(c4ncc(Cl)cc4F)CC(=O)N3Cc3ccc(F)cc3)(C1)C2 (stereo not shown) [Compound 780, methyl 3-(4-(5-chloro-3-fluoropyridin-2-yl)-1-(4-fluorobenzyl)-3,6-dioxopiperazin-2-yl)bicyclo[1.1.1]pentane-1-carboxylate]",3.6
16,"COC(=O)C12CC(C3C(=O)N(c4ncc(Cl)cc4F)CC(=O)N3Cc3ccc(C)cc3)(C1)C2 (stereo not shown) [Compound 781, methyl 3-(4-(5-chloro-3-fluoropyridin-2-yl)-1-(4-methylbenzyl)-3,6-dioxopiperazin-2-yl)bicyclo[1.1.1]pentane-1-carboxylate]",4.0

row,SMILES,CDMF75 IC15 [µM]
1,"CCOC(=O)C12CC(C3C(=O)N(c4ncc(Cl)cc4F)CC(=O)N3Cc3ccc(C(F)(F)F)cc3)(C1)C2 (stereo not shown) [Compound 782, ethyl 3-(4-(5-chloro-3-fluoropyridin-2-yl)-3,6-dioxo-1-(4-(trifluoro-methyl)benzyl)piperazin-2-yl)bicyclo[1.1.1]pentane-1-carboxylate]",3.6
2,"NC(=O)C12CC(C3C(=O)N(c4ncc(Cl)cc4F)CC(=O)N3Cc3ccc(C(F)(F)F)cc3)(C1)C2 (stereo not shown) [Compound 783, 3-(4-(5-chloro-3-fluoro-pyridin-2-yl)-3,6-dioxo-1-(4-(trifluoromethyl)-benzyl)piperazin-2-yl)bicyclo[1.1.1]pentane-1-carboxamide]",3.08
3,"O=C1C(C23CC(CO)(C2)C3)N(Cc2ccc(C(F)(F)F)cc2)C(=O)CN1c1ncc(Cl)cc1F (stereo not shown) [Compound 784, 1-(5-chloro-3-fluoropyridin-2-yl)-3-(3-(hydroxymethyl)bicyclo[1.1.1]pentan-1-yl)-4-(4-(trifluoromethyl)benzyl)piperazine-2,5-dione]",6.8
4,"CC(=O)N1CC2(C1)C(=O)N(c1ccc(Cl)cc1F)CC(=O)N2Cc1ccc(F)cc1 [Compound 785, 2-acetyl-8-(4-chloro-2-fluorophenyl)-5-(4-fluorobenzyl)-2,5,8-triazaspiro[3.5]nonane-6,9-dione]",5.0
5,"NC(=O)C12CC(C3C(=O)N(c4ncc(Cl)cc4F)CC(=O)N3Cc3ccc(C(F)F)cc3)(C1)C2 (stereo not shown) [Compound 790, 3-(4-(5-chloro-3-fluoro-pyridin-2-yl)-1-(4-(difluoromethyl)benzyl)-3,6-dioxopiperazin-2-yl)bicyclo[1.1.1]pentane-1-carboxamide]",4.9
6,"NC(=O)C12CC(C3C(=O)N(c4ncc(Cl)cc4F)CC(=O)N3Cc3ccc(F)cc3)(C1)C2 (stereo not shown) [Compound 791, 3-(4-(5-chloro-3-fluoro-pyridin-2-yl)-1-(4-fluoro-benzyl)-3,6-dioxopiperazin-2-yl)bicyclo[1.1.1]pentane-1-carboxamide]",2.7
7,"Cc1ccc(CN2C(=O)CN(c3ncc(Cl)cc3F)C(=O)C2C23CC(C(N)=O)(C2)C3)cc1 (stereo not shown) [Compound 792, 3-(4-(5-chloro-3-fluoro-pyridin-2-yl)-1-(4-methyl-benzyl)-3,6-dioxopiperazin-2-yl)bicyclo[1.1.1]pentane-1-carboxamide]",3.8
8,"O=C1CN(c2ccc(Cl)cc2F)C(=O)C2(COC2)N1Cc1ccc(F)cc1 [Compound 799, 8-(4-chloro-2-fluoro-phenyl)-5-(4-fluorobenzyl)-2-oxa-5,8-diazaspiro-[3.5]nonane-6,9-dione]",3.9
9,"O=C1CN(c2ncc(Cl)cc2F)C(=O)C2(CC3(COC3)C2)N1Cc1ccc(C(F)(F)F)cc1 [Compound 813, 10-(5-chloro-3-fluoro-pyridin-2-yl)-7-(4-(trifluoro-methyl)benzyl)-2-oxa-7,10-diazadispiro-[3.1.56.14]dodecane-8,11-dione]",0.4
10,"O=C1CN(c2ncc(Cl)cc2F)C(=O)C2(CC3(COC3)C2)N1Cc1ccc(C(F)F)cc1 [Compound 814, 10-(5-chloro-3-fluoro-pyridin-2-yl)-7-(4-(difluoromethyl)benzyl)-2-oxa-7,10-diazadispiro-[3.1.56.14]dodecane-8,11-dione]",0.8
11,"O=C1CN(c2ncc(Cl)cc2F)C(=O)C2(CC3(COC3)C2)N1Cc1ccc(F)cc1 [Compound 815, 10-(5-chloro-3-fluoro-pyridin-2-yl)-7-(4-Fluorobenzyl)-2-oxa-7,10-diazadispiro-[3.1.56.14]dodecane-8,11-dione]",0.7
12,"Cc1ccc(CN2C(=O)CN(c3ncc(Cl)cc3F)C(=O)C23CC2(COC2)C3)cc1 [Compound 816, 10-(5-chloro-3-fluoro-pyridin-2-yl)-7-(4-methyl-benzyl)-2-oxa-7,10-diazadispiro[3.1.56.14]-dodecane-8,11-dione]",0.9
13,"NC(=O)C12CC([C@H]3C(=O)N(c4ncc(Cl)cc4F)CC(=O)N3Cc3ccc(C(F)F)cc3)(C1)C2 [Compound 821, (S)-3-(4-(5-chloro-3-fluoropyridin-2-yl)-3,6-dioxo-1-(4-(difluoro-methyl)benzyl)piperazin-2-yl)bicyclo[1.1.1]pentane-1-carboxamide]",2.1
14,"NC(=O)C12CC([C@@H]3C(=O)N(c4ncc(Cl)cc4F)CC(=O)N3Cc3ccc(C(F)F)cc3)(C1)C2 [Compound 822, (R)-3-(4-(5-chioro-3-fluoropyridin-2-yl)-3,6-dioxo-1-(4-(difluoro-methyl)benzyl)piperazin-2-yl)bicyclo[1.1.1]pentane-1-carboxamide]",>39
15,"Cc1ccc(CN2C(=O)CN(c3ncc(Cl)cc3F)C(=O)[C@@H]2C23CC(C(N)=O)(C2)C3)cc1 [Compound 823, (S)-3-(4-(5-chloro-3-fluoropyridin-2-yl)-1-(4-methylbenzyl)-3,6-dioxopiperazin-2-yl)bicyclo[1.1.1]pentane-1-carboxamide]",2.3
